The record followed here is patent US6869964B2, “Heterocyclicsulfonamide hepatitis C virus inhibitors” (Bristol-Myers Squibb Company, priority 2002, dated 2005).

Some results are limits rather than exact numbers.

Experiment [1] deals with HCV replicon in Huh7 cells. Kind of experiment: HCV replicon cell-based assay (FRET). More on the design: species or system HCV strain 1B. As to conditions: Hepatitis C virus, Huh-7; replicon, activity range; read-out: EC50 a, b, c (Activity Table). From the text:
HCV Replicon Cell-based Assay
An HCV replicon whole cell system was established as described by Lohmann V, Korner F, Koch J, Herian U, Theilmann L, Bartenschlager R., Science 285(5424): 110-3 (1999). This system enabled us to evaluate the effects of our HCV Protease compounds on HICV RNA replication. Briefly, using the HCV strain 1B sequence described in the Lohmann paper (Assession number: AJ238799), an HCV cDNA was generated encoding the 5′ internal ribosome entry site (IRES), the neomycin resistance gene, the EMCV (encephalomyocarditis virus)-IRES and the HCV nonstructural proteins, NS3-NS5B, and 3′ non-translated region (NTR). In vitro transcripts of the cDNA were transfected into the human hepatoma cell line, Huh7. […] Resulting cell lines were characterized for positive and negative strand RNA production and protein production over time.
Huh7 cells, constitutively expressing the HCV replicon, were grown in Dulbecco's Modified Eagle Media (DMEM) containing 10% Fetal calf serum (FCS) and 1 mg/ml G418 (Gibco-BRL). Cells were seeded the night before (1.5×10^4 cells/well) in 96-well tissue-culture sterile plates. Compound and no compound controls were prepared in DMEM containing 4% FCS, 1:100 Penicillin/Streptomysin, 1:100 L-glutamine and 5% DMSO in the dilution plate (0.5% DMSO final concentration in the assay). Compound/DMSO mixes were added to the cells and incubated for 4 days at 37° C. After 4 days, plates were rinsed thoroughly with Phosphate-Buffered Saline (PBS) (3 times 150 μl). The cells were lysed with 25 μl of a lysis assay reagent containing the FRET peptide (RET S1, as described for the in vitro enzyme assay). The lysis assay reagent was made from 5× cell Luciferase cell culture lysis reagent(Promega #E153A) diluted to 1× with distilled water, NaCl added to 150 mM final, the FRET peptide diluted to 10 μM final from a 2 mM stock in 100% DMSO. The plate was then placed into the Cytofluor 4000 instrument which had been set to 340 nm excitation/490 emission, automatic mode for 21 cycles and the plate read in a kinetic mode. EC50 determinations were carried out as described for the IC50 determinations.
A general note: Replicon systems follow genome replication, usually without infectious particles.

Experiment [2] deals with T1, HCV NS3/4A protease complex (BMS strain) (Hepatitis C virus genotype 1a, UniProt P27958, C1454S).
T1 construct: HCV NS3/4A protease complex (amino acids 1027 to 1711); inferred from pET21b vector and Ni-NTA purification; made in house; host or cells: Escherichia coli BL21 (DE3), pET21b
T1 sequence (P27958 1027-1657 C1454S): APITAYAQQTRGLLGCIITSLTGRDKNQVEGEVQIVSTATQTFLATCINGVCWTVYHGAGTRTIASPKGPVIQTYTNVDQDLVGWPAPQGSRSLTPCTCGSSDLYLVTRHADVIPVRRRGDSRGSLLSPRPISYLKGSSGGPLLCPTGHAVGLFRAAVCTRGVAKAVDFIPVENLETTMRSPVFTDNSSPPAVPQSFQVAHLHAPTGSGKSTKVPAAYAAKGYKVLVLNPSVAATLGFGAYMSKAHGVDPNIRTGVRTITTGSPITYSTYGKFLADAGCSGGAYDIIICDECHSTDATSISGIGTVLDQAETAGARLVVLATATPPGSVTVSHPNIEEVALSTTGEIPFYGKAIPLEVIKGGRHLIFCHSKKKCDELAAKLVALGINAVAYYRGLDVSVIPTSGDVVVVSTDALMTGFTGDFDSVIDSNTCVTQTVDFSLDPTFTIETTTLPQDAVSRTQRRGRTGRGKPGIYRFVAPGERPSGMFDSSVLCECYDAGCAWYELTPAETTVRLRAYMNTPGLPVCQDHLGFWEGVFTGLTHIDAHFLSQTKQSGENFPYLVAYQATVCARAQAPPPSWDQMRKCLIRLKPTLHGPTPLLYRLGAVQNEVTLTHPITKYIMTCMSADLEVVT
T1 sequence (P27958 1658-1711 partner, looked up, stated change not applied): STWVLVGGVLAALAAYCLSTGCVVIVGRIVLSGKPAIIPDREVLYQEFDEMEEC
Kind of experiment: Recombinant HCV NS3/4A protease complex FRET peptide assay, BMS strain. It is filed as biochemical, HCV genotype 1a. As to conditions: NS3/4A BMS Strain, activity range; read-out: IC50 a, b, c (Activity Table). From the text:
Recombinant HCV NS3/4A Protease Complex FRET Peptide Assay
The purpose of this in vitro assay was to measure the inhibition of HCV NS3 protease complexes, derived from the BMS, H77C or J4l6S strains, as described below, by compounds of the present invention. This assay provides an indication of how effective compounds of the present invention would be in inhibiting HCV proteolytic activity.
Serum from an HCV-infected patient was obtained from Dr. T. Wright, San Francisco Hospital. An engineered full-length cDNA template of the HCV genome (BMS strain) was constructed from DNA fragments obtained by reverse transcription-PCR (RT-PCR) of serum RNA and using primers selected on the basis of homology between other genotype la strains. From the determination of the entire genome sequence, a genotype la was assigned to the HCV isolate according to the classification of Simmonds et al. (See P Simmonds, K A Rose, S Graham, S W Chan, F McOmish, B C Dow, E A Follett, P L Yap and H Marsden, J. Clin. Microbiol., 31(6), 1493-1503 (1993)). […] The infectious clones, H77C (1a genotype) and J4 L6S (1b genotype) were obtained from R. Purcell (NIH) and the sequences are published in Genbank (AAB67036, see Yanagi, M., Purcell, R. H., Emerson, S. U. and Bukh, J. Proc. Natl. Acad. Sci. U.S.A. 94(16),8738-8743 (1997); AF054247, see Yanagi, M., St Claire, M., Shapiro, M., Emerson, S. U., Purcell, R. H. and Bukh, J, Virology 244 (1), 161-172. (1998)).
The BMS, H77C and J4 L6S strains were used for production of recombinant NS3/4A protease complexes. DNA encoding the recombinant HCV NS3/4A protease complex (amino acids 1027 to 1711) for these strains were manipulated as described by P. Gallinari et al. (see Gallinari P, Paolini C, Brennan D, Nardi C, Steinkuhler C, De Francesco R. Biochemistry. 38(17):5620-32, (1999)). Briefly, a three-lysine solubilizing tail was added at the 3′-end of the NS4A coding region. The cysteine in the P1 position of the NS4A-NS4B cleavage site (amino acid 1711) was changed to a glycine to avoid the proteolytic cleavage of the lysine tag. Furthermore, a cysteine to serine mutation was introduced by PCR at amino acid position 1454 to prevent the autolytic cleavage in the NS3 helicase domain. The variant DNA fragment was cloned in the pET21b bacterial expression vector (Novagen) and the NS3/4A complex was expressed in Escherichia coli strain BL21 (DE3) (Invitrogen) following the protocol described by P. Gallinari et al. (see Gallinari P, Brennan D, Nardi C, Brunetti M, Tomei L, Steinkuhler C, De Francesco R., J Virol. 72(8):6758-69 (1998)) with modifications. Briefly, NS3/4A expression was induced with 0.5 mM Isopropyl β-D-1-thiogalactopyranoside (IPTG) for 22 hr at 20° C. A typical fermentation (10 L) yielded approximately 80 g of wet cell paste. The cells were resuspended in lysis buffer (10 mL/g) consisting of 25 mM N-(2-Hydroxyethyl)Piperazine-N′-(2-Ethane Sulfonic acid) (HEPES), pH7.5, 20% glycerol, 500 mM Sodium Chloride (NaCl), 0.5% Triton-X100, 1 ug/ml lysozyme, 5 mM Magnesium Chloride (MgCl2), 1 ug/ml DnaseI, 5 mM β-Mercaptoethanol (βME), Protease inhibitor—Ethylenediamine Tetraacetic acid (EDTA) free (Roche), homogenized and incubated for 20 mins at 4° C. The homogenate was sonicated and clarified by ultra-centrifugation at 235000 g for lhr at 4° C. Imidazole was added to the supernatant to a final concentration of 15 mM and the pH adjusted to 8.0. The crude protein extract was loaded on a Nickel—Nitrilotriacetic acid (Ni—NTA) column pre-equilibrated with buffer B (25 mM HEPES, pH8.0, 20% glycerol, 500 mM NaCl, 0.5% Triton-X100, 15 mM imidazole, 5 mM βME). The sample was loaded at a flow rate of 1 mL/min. The column was washed with 15 column volumes of buffer C (same as buffer B except with 0.2% Triton-X100). The protein was eluted with 5 column volumes of buffer D (same as buffer C except with 200 mM Imidazole). […]

As to `C=CC1C[C@]1(NC(=O)[C@@H]1C[C@@H](Oc2cc(-c3ccccc3)nc3cc(OC)ccc23)CN1C(=O)[C@@H](NC(=O)OC(C)(C)C)C(C)(C)C)C(=O)NS(=O)(=O)C1CCS(=O)(=O)C1` (mixture of isomers) [Compound 13, {1-[2-[1-(1,1-Dioxo-tetrahydro-1H-1[…]6-thiophene-3(R/S)-sulfonylaminocarbonyl)-2-vinylcyclopropylcarbamoyl]-4-(7-methoxy-2-phenyl-quinolin-4-yloxy)pyrrolidine-1-carbonyl]-2,2-dimethylpropyl}carbamic acid tert-butyl ester], the EC50 in experiment [1] lay within 100 to 1000 nM. For the same compound, the IC50 in experiment [2] is under 100 nM.

For the compound `C=CC1C[C@]1(NC(=O)[C@@H]1C[C@@H](Oc2cc(-c3ccccc3)nc3cc(OC)ccc23)CN1C(=O)[C@@H](NC(=O)OC(C)(C)C)C(C)(C)C)C(=O)NS(=O)(=O)c1ccc(Cl)s1` (stereo in doubt) [Compound 2, (1-{4-(7-Methoxy-2-phenylquinolin-4-yloxy)-2-[1-(5-Chlorothiophene-2-sulfonylaminocarbonyl)-2-vinyl-cyclopropylcarbamoyl]-pyrrolidine-1-carbonyl}-2,2-dimethylpropyl)carbamic acid tert-butyl ester], the EC50 in experiment [1] lay within 100 to 1000 nM. The IC50 in experiment [2] is under 100 nM.

As for `C=CC1C[C@]1(NC(=O)[C@@H]1C[C@@H](Oc2cc(-c3ccccc3)nc3cc(OC)ccc23)CN1C(=O)[C@@H](NC(=O)OC(C)(C)C)C(C)(C)C)C(=O)NS(=O)(=O)c1ccc([N+](=O)[O-])s1` (stereo in doubt) [Compound 3, (1-{4-(7-Methoxy-2-phenylquinolin-4-yloxy)-2-[1-(5-Nitrothiophene-2-sulfonylaminocarbonyl)-2-vinyl-cyclopropylcarbamoyl]pyrrolidine-1-carbonyl}-2,2-dimethylpropyl)carbamic acid tert-butyl ester], the EC50 in experiment [1] was in the range of 100 to 1000 nM. For the same compound, the IC50 in experiment [2] lay in the range of 100 to 1000 nM.

For `C=CC1C[C@]1(NC(=O)[C@@H]1C[C@@H](Oc2cc(-c3ccccc3)nc3cc(OC)ccc23)CN1C(=O)[C@@H](NC(=O)OC(C)(C)C)C(C)(C)C)C(=O)NS(=O)(=O)c1ccc(Br)s1` (stereo in doubt) [Compound 4, (1-{4-(7-Methoxy-2-phenylquinolin-4-yloxy)-2-[1-(5-Bromothiophene-2-sulfonylaminocarbonyl)-2-vinyl-cyclopropylcarbamoyl]pyrrolidine-1-carbonyl}-2,2-dimethylpropyl)carbamic acid tert-butyl ester], the EC50 in experiment [1] lay in the range of 100 to 1000 nM. In addition, the IC50 in experiment [2] is under 100 nM.

As for `C=CC1C[C@]1(NC(=O)[C@@H]1C[C@@H](Oc2cc(-c3ccccc3)nc3cc(OC)ccc23)CN1C(=O)[C@@H](NC(=O)OC(C)(C)C)C(C)(C)C)C(=O)NS(=O)(=O)c1ccc(Sc2ccc(Cl)cc2)s1` (stereo in doubt) [Compound 5, {1-[2-{1-[5-(4-Chlorophenylsulfanyl)-thiophene-2-sulfonylamino-carbonyl]-2-vinyl-cyclopropylcarbamoyl}-4-(7-methoxy-2-phenyl-quinolin-4-yloxy)-pyrrolidine-1-carbonyl]-2,2-dimethylpropyl}carbamic acid tert-butyl ester], in experiment [1], the EC50 fell in the range of 1000 to 10000 nM. Further, in experiment [2], the IC50 fell in the range of 100 to 1000 nM.

`C=CC1C[C@]1(NC(=O)[C@@H]1C[C@@H](Oc2cc(-c3ccccc3)nc3cc(OC)ccc23)CN1C(=O)[C@@H](NC(=O)OC(C)(C)C)C(C)(C)C)C(=O)NS(=O)(=O)c1cc(Br)c(Cl)s1` (stereo in doubt) [Compound 7, {1-[2-{1-[4-Bromo-5-chlorothiophene-2-sulfonylamino-carbonyl]-2-vinylcyclopropylcarbamoyl}-4-(7-methoxy-2-phenyl-quinolin-4-yloxy)pyrrolidine-1-carbonyl]-2,2-dimethylpropyl}carbamic acid tert-butyl ester]: in experiment [1], the EC50 fell in the range of 1000 to 10000 nM. Besides, in experiment [2], the IC50 was under 100 nM.

On to `C=CC1C[C@]1(NC(=O)[C@@H]1C[C@@H](Oc2cc(-c3ccccc3)nc3cc(OC)ccc23)CN1C(=O)[C@@H](NC(=O)OC(C)(C)C)C(C)(C)C)C(=O)NS(=O)(=O)c1cc(Cl)c(Cl)s1` (stereo in doubt) [Compound 8, {1-[2-{1-[4,5-dichlorothiophene-2-sulfonylaminocarbonyl]-2-vinylcyclopropylcarbamoyl}-4-(7-methoxy-2-phenyl-quinolin-4-yloxy)pyrrolidine-1-carbonyl]-2,2-dimethylpropyl}carbamic acid tert-butyl ester], for which the concentration giving a half-maximal response (EC50) in experiment [1] was in the range of 100 to 1000 nM. Besides, the IC50 in experiment [2] is under 100 nM.

As to `C=CC1C[C@]1(NC(=O)[C@@H]1C[C@@H](Oc2cc(-c3ccccc3)nc3cc(OC)ccc23)CN1C(=O)[C@@H](NC(=O)OC(C)(C)C)C(C)(C)C)C(=O)NS(=O)(=O)c1sc(C)nc1C` (stereo in doubt) [Compound 9, {1-[2-{1-[2,4-dimethylthiazole-5-sulfonylaminocarbonyl]-2-vinylcyclopropylcarbamoyl}-4-(7-methoxy-2-phenyl-quinolin-4-yloxy)pyrrolidine-1-carbonyl]-2,2-dimethylpropyl}carbamic acid tert-butyl ester], in experiment [1], the EC50 was in the range of 100 to 1000 nM. In experiment [2], the IC50 is under 100 nM.

The EC50 is the concentration at which the effect is half-maximal. By IC50 is commonly meant the point on the concentration scale where inhibition reaches its midpoint.
